# According to US20240327364A1, “THERAPEUTIC TARGETING OF GPR68 TO INDUCE FERROPTOSIS” (University Of Maryland, Baltimore, priority 2023, published 2024):
# Assays:
# [1] = tested on: patient derived GBM lines; test: qPCR of ferroptosis markers; format: cell-based, human; conditions: 3 days
# Description: cDNAs were generated using High-Capacity cDNA Reverse Transcription Kit with RNase Inhibitor (ThermoFisher, […]). Samples were run on a Quant Studio 5 real-time PCR system (Applied Biosystems™) with TaqMan™ Universal Master Mix II, with UNG (ThermoFisher, 4440042). Primers used were GAPDH: Hs02786624g1, GPR68: Hs00268858s1, ATF4: Hs00909569_g1, CHAC1: Hs00225520_m1, SLC7A11: Hs00921938_m1, HMOX1: Hs01110250_m1, TFRC: Hs00951083_m1.
# Separate biological replicates of pdx and neurosphere cells treated with OGM for 3 days were generated. RNA was isolated, cDNA generated and qPCR was conducted on select key markers of ferroptosis (ATF4. CHAC1, HMOX1, TFRC, and SLC7A11) that were seen as dysregulated in RNAseq.
# [2] = tested on: Panc02; test: Cell cycle analysis (propidium iodide flow cytometry); format: cell-based, mouse; conditions: 3 Gy radiation in combination with OGM
# Protocol: Where appropriate, ANOVA, or student's T-test were conducted in PRISM. Chi squared T(X) was used for Liperfluo analysis. A value T(X)>4 implies that the two distributions are different with a p<0.01 (99% confidence). For drug interaction and therapeutic interaction, the coefficient of drug interaction (CDI) was calculated as follows: CDI=AB/(A×B). According to the impact of each group, AB is the value of combined treatment and A or B is the value of the single agent group to control group.
# Both radiation and ferroptosis are known to induce G2/M arrest. Therefore, cells were treated with OGM2 and/or 3 Gy radiation. Media was then replaced, and cells were maintained for 24 hours. Cells were then trypsinized, pelleted, and fixed overnight in 70% Methanol at 4° C. Samples were then washed twice with cold PBS before being incubated with 10 mg/ml RNase A and 500 μg/ml propidium iodide in PBS in the dark for 30 minutes at room temperature. Cell cycle progression was determined by Flow cytometry using a LSR II from BD. FIG. 96A presents a cell cycle analysis of OGM2 treatment and irradiated Panc02 cells.
# [3] = biological target: T1, GLP-1 (Homo sapiens, UniProt P43220); test: GPCR Profiler; format: cell-based
# T1 construct: host or cells: Chem-1 cells expressing Gα15
# T1 sequence (P43220 24-463): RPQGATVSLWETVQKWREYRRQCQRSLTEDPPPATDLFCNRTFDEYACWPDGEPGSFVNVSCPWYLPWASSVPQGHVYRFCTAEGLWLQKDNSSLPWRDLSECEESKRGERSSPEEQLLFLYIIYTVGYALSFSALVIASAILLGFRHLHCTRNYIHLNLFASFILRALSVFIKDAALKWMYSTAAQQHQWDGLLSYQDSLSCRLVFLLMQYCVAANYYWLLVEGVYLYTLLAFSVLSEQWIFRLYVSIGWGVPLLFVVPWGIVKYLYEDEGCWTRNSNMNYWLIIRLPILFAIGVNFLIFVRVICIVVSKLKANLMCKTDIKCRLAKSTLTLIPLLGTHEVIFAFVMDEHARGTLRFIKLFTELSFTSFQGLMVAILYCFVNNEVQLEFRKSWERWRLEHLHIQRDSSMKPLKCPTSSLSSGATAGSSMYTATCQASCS
# [4] = biological target: T2, PIM1 (Homo sapiens, UniProt P11309); test: KinomeScan; format: binding; conditions: read-out: % Control
# T2 construct: purchased DiscoveRx (Fremont, CA)
# [5] = biological target: T3, CCK2 (Homo sapiens, UniProt P32239); test: GPCR Profiler; format: cell-based
# T3 construct: host or cells: Chem-1 cells with promiscuous Gα15
# T3 sequence (P32239 whole entry): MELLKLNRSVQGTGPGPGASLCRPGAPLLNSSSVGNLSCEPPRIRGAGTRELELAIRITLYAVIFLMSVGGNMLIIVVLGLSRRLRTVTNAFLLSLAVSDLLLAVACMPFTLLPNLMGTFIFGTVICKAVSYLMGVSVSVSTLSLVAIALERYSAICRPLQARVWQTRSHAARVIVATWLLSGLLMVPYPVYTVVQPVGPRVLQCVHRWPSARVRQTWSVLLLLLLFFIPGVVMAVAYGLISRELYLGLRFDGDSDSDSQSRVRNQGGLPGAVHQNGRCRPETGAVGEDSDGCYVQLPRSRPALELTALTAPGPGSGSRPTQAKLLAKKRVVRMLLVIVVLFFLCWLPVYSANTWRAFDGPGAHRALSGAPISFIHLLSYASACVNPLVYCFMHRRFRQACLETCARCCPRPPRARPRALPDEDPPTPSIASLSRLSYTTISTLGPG
# [6] = biological target: T4, CDC2L5 (Homo sapiens, UniProt Q14004); test: KinomeScan; format: binding; conditions: read-out: % Control
# T4 construct: purchased DiscoveRx (KinomeScan service)
# T4 sequence (Q14004 whole entry): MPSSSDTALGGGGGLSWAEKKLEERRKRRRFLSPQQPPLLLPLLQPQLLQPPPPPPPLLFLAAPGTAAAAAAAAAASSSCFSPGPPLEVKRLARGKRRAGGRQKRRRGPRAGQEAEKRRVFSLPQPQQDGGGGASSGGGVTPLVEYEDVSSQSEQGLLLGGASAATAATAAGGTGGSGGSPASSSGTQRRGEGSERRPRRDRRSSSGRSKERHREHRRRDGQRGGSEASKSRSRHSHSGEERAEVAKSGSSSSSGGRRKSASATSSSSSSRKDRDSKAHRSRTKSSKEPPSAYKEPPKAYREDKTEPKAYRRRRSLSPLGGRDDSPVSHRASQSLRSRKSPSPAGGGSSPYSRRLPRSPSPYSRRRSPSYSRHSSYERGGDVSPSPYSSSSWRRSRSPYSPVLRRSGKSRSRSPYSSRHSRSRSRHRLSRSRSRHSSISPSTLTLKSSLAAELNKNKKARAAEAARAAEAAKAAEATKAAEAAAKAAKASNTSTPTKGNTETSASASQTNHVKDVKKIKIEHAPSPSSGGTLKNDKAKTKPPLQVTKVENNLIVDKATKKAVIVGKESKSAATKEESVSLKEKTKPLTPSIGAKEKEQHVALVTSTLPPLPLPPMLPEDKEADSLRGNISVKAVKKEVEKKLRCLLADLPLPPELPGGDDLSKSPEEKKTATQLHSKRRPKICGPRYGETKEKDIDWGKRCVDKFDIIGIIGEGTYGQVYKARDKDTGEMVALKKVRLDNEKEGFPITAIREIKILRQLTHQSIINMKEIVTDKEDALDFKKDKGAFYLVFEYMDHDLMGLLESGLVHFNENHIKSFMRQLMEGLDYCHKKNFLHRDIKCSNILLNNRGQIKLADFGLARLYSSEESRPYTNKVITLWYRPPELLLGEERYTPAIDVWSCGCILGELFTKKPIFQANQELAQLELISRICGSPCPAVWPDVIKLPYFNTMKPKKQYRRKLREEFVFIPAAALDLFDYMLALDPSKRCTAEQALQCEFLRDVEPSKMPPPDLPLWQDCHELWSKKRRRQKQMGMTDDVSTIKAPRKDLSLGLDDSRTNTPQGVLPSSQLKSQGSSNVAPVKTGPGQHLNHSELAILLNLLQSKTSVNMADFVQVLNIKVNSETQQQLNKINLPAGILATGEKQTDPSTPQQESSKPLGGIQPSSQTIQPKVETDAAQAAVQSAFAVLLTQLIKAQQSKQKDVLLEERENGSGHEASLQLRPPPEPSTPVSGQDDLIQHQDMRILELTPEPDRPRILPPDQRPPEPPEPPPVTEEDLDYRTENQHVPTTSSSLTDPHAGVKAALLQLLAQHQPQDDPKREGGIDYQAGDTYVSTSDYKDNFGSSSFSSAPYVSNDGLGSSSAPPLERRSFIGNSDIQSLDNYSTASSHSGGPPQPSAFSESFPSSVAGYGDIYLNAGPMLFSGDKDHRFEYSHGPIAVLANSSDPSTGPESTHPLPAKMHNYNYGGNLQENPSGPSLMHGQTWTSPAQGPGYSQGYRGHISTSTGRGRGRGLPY
# Protocol: (§1) GPCR profiling assays were performed by Millipore (St. Louis, MO) using in cells expressing Gα15, a promiscuous G protein that enhances GPCR coupling to downstream Ca2+ signaling pathways. KinomeScan was conducted by DiscoveRx (Fremont, CA).
# (§2) To identify the target of OGM1, the molecule was profiled for binding in a panel of 442 kinases (KinomeScan™, DiscoveRx™) and assessed its activity against 158 GPCRs in a single-point assay in Chem-1 cells that uses a promiscuous Gα15 protein to trigger calcium flux (see Table 9 and Table 10, below). […] Table 9. KinomeScan (DiscoverRx) profiling of OGM1.
# [7] = biological target: T5, PRP4 (Homo sapiens, UniProt Q13523); test: KinomeScan; format: binding; conditions: read-out: % Control
# T5 construct: purchased DiscoveRx (Fremont, CA)
# Protocol: as §1, §2
# [8] = biological target: T6, EGFR(L747-S752del, P753S) (Homo sapiens, UniProt P00533, DEL747-752/P753S); test: KinomeScan; format: binding; conditions: read-out: % Control
# T6 construct: purchased DiscoveRx (Fremont, CA), KinomeScan service
# [9] = biological target: T7, TAOK2 (Homo sapiens, UniProt Q9UL54); test: KinomeScan; format: binding; conditions: read-out: % Control
# T7 construct: purchased DiscoveRx (Fremont, CA)
# [10] = biological target: T8, BB2 (Homo sapiens, UniProt P30550); test: GPCR Profiler; format: cell-based
# T8 construct: host or cells: Chem-1 cells with promiscuous Gα15
# T8 sequence (P30550 whole entry): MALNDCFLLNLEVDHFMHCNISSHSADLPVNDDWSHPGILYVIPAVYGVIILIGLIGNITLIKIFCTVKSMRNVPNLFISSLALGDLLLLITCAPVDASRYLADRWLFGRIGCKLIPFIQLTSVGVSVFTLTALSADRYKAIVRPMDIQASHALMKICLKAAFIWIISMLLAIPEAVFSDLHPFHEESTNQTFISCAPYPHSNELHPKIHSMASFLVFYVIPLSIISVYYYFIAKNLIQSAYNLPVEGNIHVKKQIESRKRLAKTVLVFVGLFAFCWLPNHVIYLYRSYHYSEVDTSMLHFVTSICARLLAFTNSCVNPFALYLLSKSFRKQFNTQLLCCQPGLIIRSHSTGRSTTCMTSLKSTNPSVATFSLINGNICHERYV
# [11] = biological target: T9, MAPKAPK5 (Homo sapiens, UniProt Q8IW41); test: KinomeScan; format: binding; conditions: read-out: % Control
# T9 construct: purchased DiscoveRx (Fremont, CA)
# [12] = biological target: T10, ASK2 (Homo sapiens, UniProt O95382); test: KinomeScan; format: binding; conditions: read-out: % Control
# T10 construct: purchased DiscoveRx (Fremont, CA)
# [13] = biological target: T11, HIPK2 (Homo sapiens, UniProt Q9H2X6); test: KinomeScan; format: binding; conditions: read-out: % Control
# T11 construct: purchased DiscoveRx (Fremont, CA)
# [14] = biological target: CDKL2 (Homo sapiens, UniProt Q92772); test: KinomeScan; format: binding; conditions: read-out: % Control
# [15] = biological target: T12, GAL1 (Homo sapiens, UniProt P47211); test: GPCR Profiler; format: cell-based
# T12 construct: host or cells: Chem-1 cells expressing Gα15
# T12 sequence (P47211 whole entry): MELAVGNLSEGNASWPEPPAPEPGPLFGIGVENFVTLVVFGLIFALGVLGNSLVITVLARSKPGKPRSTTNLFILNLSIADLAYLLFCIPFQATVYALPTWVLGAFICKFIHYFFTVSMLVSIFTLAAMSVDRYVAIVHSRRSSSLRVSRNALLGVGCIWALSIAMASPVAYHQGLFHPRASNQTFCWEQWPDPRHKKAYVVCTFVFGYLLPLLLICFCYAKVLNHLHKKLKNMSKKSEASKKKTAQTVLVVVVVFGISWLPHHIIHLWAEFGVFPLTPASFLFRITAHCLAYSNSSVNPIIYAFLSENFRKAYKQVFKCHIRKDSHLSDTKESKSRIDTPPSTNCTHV
# [16] = biological target: T13, PRKR (Homo sapiens, UniProt P19525); test: KinomeScan; format: binding; conditions: read-out: % Control
# T13 construct: purchased DiscoveRx (Fremont, CA)
# [17] = biological target: T14, MLK2 (Homo sapiens, UniProt Q02779); test: KinomeScan; format: binding; conditions: read-out: % Control
# T14 construct: purchased DiscoveRx
# [18] = biological target: T15, LKB1 (Homo sapiens, UniProt Q15831); test: KinomeScan; format: binding; conditions: read-out: % Control
# T15 construct: purchased DiscoveRx
# T15 sequence (Q15831 whole entry): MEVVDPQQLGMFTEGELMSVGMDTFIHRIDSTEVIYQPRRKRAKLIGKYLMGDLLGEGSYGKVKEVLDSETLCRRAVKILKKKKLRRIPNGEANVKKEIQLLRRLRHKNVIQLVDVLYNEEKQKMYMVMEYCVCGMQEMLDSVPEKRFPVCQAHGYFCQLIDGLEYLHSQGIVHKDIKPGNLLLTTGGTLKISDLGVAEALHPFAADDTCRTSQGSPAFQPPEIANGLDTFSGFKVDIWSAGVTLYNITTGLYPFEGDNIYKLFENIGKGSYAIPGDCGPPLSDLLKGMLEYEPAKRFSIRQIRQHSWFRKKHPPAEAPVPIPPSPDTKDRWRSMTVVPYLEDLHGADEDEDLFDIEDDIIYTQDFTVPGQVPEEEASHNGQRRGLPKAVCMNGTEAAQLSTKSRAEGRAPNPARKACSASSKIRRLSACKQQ
# [19] = biological target: T16, YES (Homo sapiens, UniProt P07947); test: KinomeScan; format: binding; conditions: read-out: % Control
# T16 construct: purchased DiscoveRx
# [20] = biological target: T17, BLY1 (Homo sapiens, UniProt Q15722); test: GPCR Profiler; format: cell-based
# T17 construct: host or cells: Chem-1 cells with promiscuous Gα15
# T17 sequence (Q15722 whole entry): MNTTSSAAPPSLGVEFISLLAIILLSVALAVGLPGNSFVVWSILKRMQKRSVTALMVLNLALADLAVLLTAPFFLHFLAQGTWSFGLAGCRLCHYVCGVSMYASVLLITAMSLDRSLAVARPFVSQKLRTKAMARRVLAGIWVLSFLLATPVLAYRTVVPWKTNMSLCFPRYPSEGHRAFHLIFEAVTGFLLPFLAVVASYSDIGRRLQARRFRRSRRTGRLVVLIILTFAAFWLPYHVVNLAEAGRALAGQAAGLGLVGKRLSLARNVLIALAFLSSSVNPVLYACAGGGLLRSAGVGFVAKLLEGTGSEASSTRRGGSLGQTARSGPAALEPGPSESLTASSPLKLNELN
# [21] = biological target: T18, CDK5 (Homo sapiens, UniProt Q00535); test: KinomeScan; format: binding; conditions: read-out: % Control
# T18 construct: purchased DiscoveRx (KinomeScan service)
# [22] = biological target: T19, MLCK (Homo sapiens, UniProt Q32MK0); test: KinomeScan; format: binding; conditions: read-out: % Control
# T19 construct: purchased DiscoveRx
# [23] = biological target: T20, PRKD1 (Homo sapiens, UniProt Q15139); test: KinomeScan; format: binding; conditions: read-out: % Control
# T20 construct: purchased DiscoveRx (Fremont, CA)
# T20 sequence (Q15139 whole entry): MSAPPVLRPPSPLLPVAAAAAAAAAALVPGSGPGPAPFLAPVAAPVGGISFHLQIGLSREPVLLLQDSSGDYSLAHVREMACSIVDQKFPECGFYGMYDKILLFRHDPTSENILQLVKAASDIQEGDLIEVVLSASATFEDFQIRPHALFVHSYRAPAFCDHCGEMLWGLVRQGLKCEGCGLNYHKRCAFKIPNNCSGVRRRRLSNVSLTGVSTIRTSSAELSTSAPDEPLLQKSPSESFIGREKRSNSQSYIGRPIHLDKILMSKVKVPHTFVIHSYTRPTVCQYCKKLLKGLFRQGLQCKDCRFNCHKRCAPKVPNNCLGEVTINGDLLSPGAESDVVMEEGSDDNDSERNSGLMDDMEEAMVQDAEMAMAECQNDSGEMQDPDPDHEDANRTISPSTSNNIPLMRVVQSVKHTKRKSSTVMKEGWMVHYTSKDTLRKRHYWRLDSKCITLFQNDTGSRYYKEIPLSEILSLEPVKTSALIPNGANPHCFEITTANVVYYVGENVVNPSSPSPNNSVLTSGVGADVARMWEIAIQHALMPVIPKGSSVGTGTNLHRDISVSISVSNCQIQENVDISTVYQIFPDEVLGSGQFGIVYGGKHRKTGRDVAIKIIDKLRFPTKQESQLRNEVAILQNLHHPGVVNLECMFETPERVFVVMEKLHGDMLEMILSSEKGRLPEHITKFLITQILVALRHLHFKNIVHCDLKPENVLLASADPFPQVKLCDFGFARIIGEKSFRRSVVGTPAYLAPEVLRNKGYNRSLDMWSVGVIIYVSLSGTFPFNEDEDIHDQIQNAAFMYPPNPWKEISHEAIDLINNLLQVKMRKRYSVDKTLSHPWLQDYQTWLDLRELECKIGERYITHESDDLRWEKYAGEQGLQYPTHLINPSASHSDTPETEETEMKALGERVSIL
# [24] = biological target: T21, PIK3CA(Q546K) (Homo sapiens, UniProt P42336, Q546K); test: KinomeScan; format: binding; conditions: read-out: % Control
# T21 construct: purchased DiscoveRx (Fremont, CA)
compound,measurement,setting,value
CCc1ccc2c(c1)C1(NN=C(c3ccccc3)S1)C(=O)N2 (stereo not drawn) [OGM2],"expression of ATF4, CHAC1, HMOX1, TFRC, SLC7A11",[1],induced key markers of ferroptosis
same,"coefficient of drug interaction (CDI), G2 phase fraction",[2],0.689
same,increase in the G2 phase fraction,[2],120%
"CCc1ccc2c(c1)C1(NN=C(c3cccc4ccccc34)S1)C(=O)N2 (stereo not drawn) [OGM1, 5-ethyl-5′-naphthalen-1-ylspiro[1H-indole-3,2′-3H-1,3,4-thiadiazole]-2-one]",Antagonism,[3]; 10 uM,2.1
same,Agonism,[3]; 12.5 uM,−0.3
same,remaining binding at 10 µM,[4],56%
same,Antagonism,[5]; 10 uM,14.9
same,Agonism,[5]; 12.5 uM,−0.4
same,remaining binding at 10 µM,[6],99%
same,remaining binding at 10 µM,[7],100%
same,remaining binding at 10 µM,[8],99%
same,remaining binding at 10 µM,[9],81%
same,Antagonism,[10]; 10 uM,0
same,Agonism,[10]; 12.5 uM,−0.2
same,remaining binding at 10 µM,[11],86%
same,remaining binding at 10 µM,[12],100%
same,remaining binding at 10 µM,[13],100%
same,remaining binding at 10 µM,[14],100%
same,Antagonism,[15]; 10 uM,−7.3
same,Agonism,[15]; 12.5 uM,1.6
same,remaining binding at 10 µM,[16],59%
same,remaining binding at 10 µM,[17],100%
same,remaining binding at 10 µM,[18],78%
same,remaining binding at 10 µM,[19],100%
same,Antagonism,[20]; 10 uM,−5.5
same,Agonism,[20]; 12.5 uM,0.3
same,remaining binding at 10 µM,[21],100%
same,remaining binding at 10 µM,[22],100%
same,remaining binding at 10 µM,[23],100%
same,remaining binding at 10 µM,[24],95%
